Several values for one entry are separate records, joined by “and”; a condition that tells them apart may be missing. Equal entries are not always repeated.
Legend:
Format in all cases: cell-based
[1] = system: HIV-1LAI selected with PFA, passage 15 (S117T); assay: Susceptibility of virus selected in vitro with PFA, passage 15
Protocol: (§1) Antiviral Susceptibility Assays. The antiviral activity of each compound was determined by inoculating MT-2 cells with HIV-1LAI at a multiplicity of infection (MOI) of 0.01 TCID50/cell, followed by incubation in the presence of three-fold serial drug dilutions (3 wells per dilution) (see Mellors, et. al., Antimicrob. Agents Chemother. 39:1087-1092). Five or seven days after infection, culture supernatants were harvested, lysed with 0.5% triton-X 100 and assayed for p24 antigen concentration using a commercial ELISA assay (DuPont, NEN Products, Wilmington, Del.). The antiviral activity of the compounds is expressed as the IC50, which is the concentration required to inhibit 50% of p24 antigen production. The fold-resistance of a test virus is calculated by dividing the IC50 of the test virus by the IC50 of the HIV-1LAI control virus.
(§2) Selection of Resistant Viruses. […] Viral cytopathic effects (CPE) were monitored daily. […] The passaged virus was monitored regularly for a reduction in susceptibility to the compounds by determining the EC50 relative to unpassaged HIV-1LAI (Mellors, et. al., Antimicrob. Agents Chemother. 39:1087-1092). […]
As controls for the invention compound selections, HIV-1LAI was passaged in the presence and absence of unmodified PFA. […] None of the mutations selected by the invention compounds or free PFA were detected in control viruses passaged in the absence of drug.

HIV-1LAI S117T/L214F = assay: p24 reduction assay in MT-2 cells, S117T/L214F; details: Table 8
Protocol: (§3) Cells. MT-2 cells (AIDS Research and Reference Reagent Program, National Institute of Allergy and Infectious Diseases, National Institutes of Health) were maintained in RPMI 1640 supplemented with 10% fetal bovine serum (FBS; JRH Biosciences, Lenexa, Kans.), 10 mM HEPES buffer, 50 IU/ml penicillin and 50 μg/ml streptomycin.
as §1
(§4) Generation of Mutant Recombinant HIV-1. HIV-1 containing the desired mutations were generated by oligonucleotide directed mutagenesis (Altered Sites II, Promega) as previously described (Mellors, et. al., Molecular Pharm. 41:446-451). After mutagenesis, mutant RT was subcloned into the pxxHIV-1LAI cloning vector using the silent XmaI and XbaI restriction sites located at the 5′ and 3′ ends of RT. Clones were DNA sequenced to verify the presence of the desired mutation(s) and electroporated into MT-2 cells as described above to generate infectious mutant recombinant HIV-1.
Mutant RT was generated via oligonucleotide-directed mutagenesis and ligated into the pXXHIV-1LAI cloning vector. […]
(§5) Recombinant viruses containing the mutations selected by invention compounds were also evaluated for their susceptibility to AZT, as shown in Table 8.

HIV-1LAI S117T/4XAZT = assay: p24 reduction assay in MT-2 cells, S117T/4XAZT; details: Table 8
Protocol: as §3, §1
Generation of Mutant Recombinant HIV-1. […]
as §5

[2] = system: HIV-1LAI selected with EB-PFA, passage 15 (W88G, L214F); assay: Susceptibility of virus selected in vitro with EB-PFA
Protocol: as §1, §2

[3] = system: recombinant HIV-1 with V75L alone or in combination with L214F or M164I; assay: p24 reduction assay in MT-2 cells, V75L recombinants; details: Example 6
Protocol: as §1
as §4, with “Clones were DNA sequenced to verify the presence of the desired mutation(s) and electroporated into MT-2 cells as described above to generate infectious mutant recombinant HIV-1.” left out

[4] = Table 6, passage 15, relative to passage 0

Compound: O=C(O)P(=O)(O)O [PFA, phosphonoformate, reference compound]
- EC50 ([1]; Human immunodeficiency virus 1, Table 6, passage 15 (S117T)): 122 µM
- Fold resist. [1, 4]: 23 and 23.2

Compound: Cc1cn([C@H]2C[C@H](N=[N+]=[N-])[C@@H](CO)O2)c(=O)[nH]c1=O [AZT, 3′-Azido-3′-deoxythymidine]
- EC50 (HIV-1LAI S117T/L214F; Human immunodeficiency virus 1, MT2, S117T/L214F, read-out: AZT EC50): 22 ± 10 nM
- Fold resistance (HIV-1LAI S117T/L214F; S117T/L214F relative to wild type virus): 1.1
- EC50 (HIV-1LAI S117T/4XAZT; Human immunodeficiency virus 1, MT2, S117T/4XAZT, read-out: AZT EC50): 40 ± 6 nM
- Fold resistance (HIV-1LAI S117T/4XAZT; S117T/4XAZT relative to wild type virus): 1.4

Compound: CCCCCCCCCCCCCCCCCCOC[C@H](COP(=O)(O)C(=O)O)OCC [EB-PFA, 1-O-octadecyl-2-O-ethyl-sn-glycero-3-PFA]
- EC50 ([2]; Table 6, passage 15 (W88G, L214F)): 3.7 µM
- Fold resist. [2, 4]: 41 and 41.1

Compound: CCCCCCCCCCCCCCCCCCOC[C@H](COP(=O)(O)C(=O)O)OC [MB-PFA, 1-O-octadecyl-2-O-methyl-sn-glycero-3-PFA]
- Fold resistance [3]: < 3 fold

Source: patent US20030207843A1, “Treatment of drug-resistant human immunodeficiency virus infection” (priority 1999, published 2003)
